According to the supplement of paper PMC6045584:
± gives the standard deviation of the averaged measurements.

Assays:
[1] = compound: CC/C(=C(\c1ccc(O)cc1)c1ccc(OCCN(C)C)cc1)c1ccccc1 [AFIMOXIFENE]; experiment: surviving fraction relative to DMSO-only wells; higher = less growth inhibition; conditions: exposure time: 5 days
How it was run: (§1)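 Five days of continuous inhibitor exposure, at 0.5, 1, 5, 10, 50, 100, 500 and 1000 nM, followed a 24-hour period after log-phase tumour cell lines were seeded at 250–500 cells per well in 384-well plates. Surviving fraction was derived from CellTiter-Glo luminescence relative to the median of DMSO-only wells. Plates were read after 10 minutes at room temperature, and lines screened three times were kept only if replicate Pearson r >0.7 and median Z' >0.3.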

[2] = compound: Cc1c(N)nc([C@H](CC(N)=O)NC[C@H](N)C(N)=O)nc1C(=O)N[C@H](C(=O)N[C@H](C)[C@@H](O)[C@H](C)C(=O)N[C@H](C(=O)NCCc1nc(-c2nc(C(=O)NCCC[S+](C)C)cs2)cs1)[C@@H](C)O)[C@@H](OC1OC(CO)C(O)C(O)C1OC1OC(CO)C(O)C(OC(N)=O)C1O)c1cnc[nH]1 [BLEOMYCIN]; experiment: as above; conditions: exposure time: 5 days
How it was run: as §1

Row | Test System | surviving fraction ([1]; 0.5 nM) | surviving fraction ([1]; 1 nM) | surviving fraction ([1]; 5 nM) | surviving fraction ([1]; 10 nM) | surviving fraction ([1]; 50 nM) | surviving fraction ([1]; 100 nM) | surviving fraction ([1]; 500 nM) | surviving fraction ([1]; 1000 nM) | surviving fraction ([2]; 0.5 nM) | surviving fraction ([2]; 1 nM) | surviving fraction ([2]; 5 nM) | surviving fraction ([2]; 10 nM) | surviving fraction ([2]; 50 nM) | surviving fraction ([2]; 100 nM) | surviving fraction ([2]; 500 nM) | surviving fraction ([2]; 1000 nM)
1 | MDAMB361 BREAST | 0.875 ± 0.038 | 0.832 ± 0.096 | 0.756 ± 0.061 | 0.815 ± 0.11 | 0.854 ± 0.081 | 0.856 ± 0.037 | 1.09 ± 0.078 | 0.782 ± 0.013 | 0.78 ± 0.07 | 0.761 ± 0.13 | 0.698 ± 0.03 | 0.819 ± 0.067 | 0.843 ± 0.016 | 0.882 ± 0.046 | 0.838 ± 0.047 | 0.865 ± 0.14
2 | MDAMB436 BREAST | 0.962 ± 0.085 | 0.99 ± 0.11 | 0.965 ± 0.087 | 1.03 ± 0.21 | 1.03 ± 0.11 | 1.08 ± 0.13 | 1.01 ± 0.066 | 1 ± 0.063 | 0.799 ± 0.027 | 0.825 ± 0.031 | 0.834 ± 0.024 | 0.791 ± 0.033 | 0.773 ± 0.031 | 0.814 ± 0.06 | 0.598 ± 0.056 | 0.506 ± 0.073
3 | MDAMB453 BREAST | 1.09 ± 0.098 | 1.07 ± 0.07 | 1.11 ± 0.066 | 1.17 ± 0.16 | 1.1 ± 0.068 | 1.07 ± 0.029 | 1.07 ± 0.039 | 1.02 ± 0.026 | 1.06 ± 0.051 | 1.03 ± 0.011 | 1.05 ± 0.045 | 1.09 ± 0.064 | 1.067 ± 0.009 | 1.14 ± 0.052 | 0.851 ± 0.061 | 0.711 ± 0.024
4 | MDAMB468 BREAST | 1.01 ± 0.021 | 0.991 ± 0.034 | 1.06 ± 0.054 | 1.09 ± 0.02 | 1.12 ± 0.077 | 1.21 ± 0.046 | 1.14 ± 0.024 | 1.05 ± 0.0095 | 0.804 ± 0.036 | 0.863 ± 0.058 | 0.912 ± 0.044 | 0.932 ± 0.039 | 1.09 ± 0.027 | 0.989 ± 0.049 | 0.768 ± 0.035 | 0.577 ± 0.026
5 | MFM223 BREAST | 1.28 ± 0.067 | 1.21 ± 0.043 | 1.19 ± 0.084 | 1.22 ± 0.13 | 1.2 ± 0.043 |  | 1.1 ± 0.062 | 0.932 ± 0.043 | 0.719 ± 0.028 | 0.784 ± 0.13 | 0.702 ± 0.076 | 0.703 ± 0.032 | 0.961 ± 0.049 | 0.923 ± 0.0095 | 0.789 ± 0.047 | 0.681 ± 0.047
6 | MG63 BONE | 1.06 ± 0.04 | 1.04 ± 0.027 | 1.1 ± 0.048 | 1.07 ± 0.051 | 1.09 ± 0.05 | 1.05 ± 0.048 | 1.02 ± 0.036 | 1.02 ± 0.049 | 0.861 ± 0.018 | 0.876 ± 0.018 | 0.864 ± 0.025 | 0.829 ± 0.018 | 0.831 ± 0.02 | 0.64 ± 0.075 | 0.22 ± 0.035 | 0.132 ± 0.0027
7 | MHM BONE | 1.02 ± 0.021 | 1.03 ± 0.05 | 1.09 ± 0.049 | 1.07 ± 0.033 | 1.06 ± 0.025 | 1.06 ± 0.027 | 1.01 ± 0.022 | 1.02 ± 0.028 | 0.966 ± 0.034 | 0.975 ± 0.015 | 1.01 ± 0.03 | 0.985 ± 0.019 | 0.999 ± 0.014 | 0.921 ± 0.016 | 0.718 ± 0.013 | 0.665 ± 0.0046
8 | NCIH441 LUNG | 1.06 ± 0.11 | 1.07 ± 0.12 | 1.04 ± 0.11 | 1.12 ± 0.12 | 1.08 ± 0.11 | 1.14 ± 0.024 | 1.23 ± 0.03 | 1.03 ± 0.13 | 0.956 ± 0.093 | 1.01 ± 0.05 | 0.919 ± 0.045 | 0.887 ± 0.063 | 0.838 ± 0.066 | 0.857 ± 0.015 | 0.762 ± 0.017 | 0.52 ± 0.028
9 | NOS1 BONE | 1.05 ± 0.094 | 1.16 ± 0.28 | 1.18 ± 0.08 | 1.27 ± 0.12 | 1.4 ± 0.15 | 1.21 ± 0.076 | 1.08 ± 0.072 | 0.973 ± 0.19 | 0.877 ± 0.087 | 0.841 ± 0.063 | 0.795 ± 0.04 | 0.782 ± 0.14 | 1.02 ± 0.33 | 0.863 ± 0.038 | 0.557 ± 0.046 | 0.656 ± 0.25
10 | NY BONE | 1.03 ± 0.041 | 1.026 ± 0.0089 | 1.1 ± 0.023 | 1.08 ± 0.027 | 1.11 ± 0.055 | 1.082 ± 0.006 | 0.972 ± 0.0056 | 0.9223 ± 0.0081 | 0.9287 ± 0.0064 | 0.925 ± 0.054 | 0.938 ± 0.028 | 0.911 ± 0.026 | 0.793 ± 0.035 | 0.589 ± 0.044 | 0.238 ± 0.0045 | 0.161 ± 0.012
11 | OS25HAL BONE | 1.02 ± 0.036 | 1.04 ± 0.029 | 1.04 ± 0.014 | 1.02 ± 0.051 | 1.18 ± 0.044 | 1.09 ± 0.021 | 1.04 ± 0.084 | 1.04 ± 0.043 | 0.885 ± 0.027 | 0.8967 ± 0.0078 | 0.924 ± 0.026 | 0.894 ± 0.027 | 0.936 ± 0.011 | 0.895 ± 0.058 | 0.511 ± 0.048 | 0.286 ± 0.004
12 | OSHN BONE | 1.09 ± 0.044 | 1.08 ± 0.023 | 1.1 ± 0.035 | 1.07 ± 0.034 | 1.12 ± 0.016 | 1.146 ± 0.0071 | 1.15 ± 0.016 | 1.1 ± 0.031 | 0.9207 ± 0.0087 | 0.916 ± 0.012 | 0.916 ± 0.007 | 0.903 ± 0.024 | 0.925 ± 0.0044 | 0.856 ± 0.07 | 0.29 ± 0.039 | 0.132 ± 0.03
13 | PCI30 HEADNECK | 1.09 ± 0.017 | 1.07 ± 0.062 | 1.07 ± 0.06 | 1.06 ± 0.023 | 1.12 ± 0.045 | 1.05 ± 0.022 | 0.99 ± 0.091 | 1.02 ± 0.032 | 0.917 ± 0.054 | 0.887 ± 0.054 | 0.942 ± 0.064 | 0.958 ± 0.04 | 0.655 ± 0.075 | 0.509 ± 0.048 | 0.32 ± 0.044 | 0.334 ± 0.033
14 | RDES SOFT TISSUE | 1.25 ± 0.09 | 1.16 ± 0.052 | 1.16 ± 0.034 | 1.14 ± 0.095 | 1.14 ± 0.14 | 1.15 ± 0.062 | 1.59 ± 0.34 | 0.955 ± 0.11 | 0.743 ± 0.081 | 0.794 ± 0.28 | 0.732 ± 0.089 | 0.783 ± 0.096 | 0.985 ± 0.27 | 0.915 ± 0.09 | 0.947 ± 0.19 | 0.582 ± 0.2
15 | S68 BREAST | 0.947 ± 0.19 | 0.829 ± 0.24 | 1.08 ± 0.052 | 0.952 ± 0.18 | 1.39 ± 0.13 | 1.21 ± 0.11 | 0.916 ± 0.047 | 0.805 ± 0.065 | 0.907 ± 0.057 | 0.858 ± 0.22 | 1.04 ± 0.15 | 0.847 ± 0.44 | 1.14 ± 0.15 | 0.911 ± 0.1 | 0.56 ± 0.076 | 0.369 ± 0.083
16 | SAOS2 BONE | 1.18 ± 0.064 | 1.14 ± 0.068 | 1.23 ± 0.051 | 1.18 ± 0.052 | 1.21 ± 0.034 | 1.2 ± 0.16 | 1.12 ± 0.14 | 0.985 ± 0.042 | 0.8247 ± 0.0029 | 0.805 ± 0.068 | 0.856 ± 0.016 | 0.698 ± 0.11 | 0.968 ± 0.024 | 0.904 ± 0.063 | 0.685 ± 0.034 | 0.462 ± 0.054
17 | SCC003 HEADNECK | 1.127 ± 0.0056 | 1.14 ± 0.015 | 1.1 ± 0.091 | 1.07 ± 0.057 | 1.13 ± 0.055 | 1.1 ± 0.091 | 1.151 ± 0.0068 | 1.11 ± 0.042 | 0.782 ± 0.088 | 0.787 ± 0.087 | 0.792 ± 0.076 | 0.822 ± 0.12 | 0.975 ± 0.012 | 0.934 ± 0.039 | 0.56 ± 0.05 | 0.457 ± 0.016
18 | SCC36 HEADNECK | 1.07 ± 0.16 | 0.969 ± 0.026 | 1.13 ± 0.046 | 1.1 ± 0.047 | 1.07 ± 0.047 | 1.1 ± 0.078 | 0.883 ± 0.06 | 0.732 ± 0.074 | 0.763 ± 0.09 | 0.762 ± 0.064 | 0.726 ± 0.027 | 0.7173 ± 0.004 | 0.998 ± 0.081 | 0.907 ± 0.1 | 0.631 ± 0.011 | 0.499 ± 0.012
19 | SCC47 HEADNECK | 1.26 ± 0.02 | 1.2 ± 0.038 | 1.31 ± 0.11 | 1.27 ± 0.13 | 1.31 ± 0.085 | 1.29 ± 0.12 | 1.24 ± 0.047 | 1.2 ± 0.055 | 0.907 ± 0.031 | 0.909 ± 0.046 | 0.917 ± 0.038 | 0.9 ± 0.019 | 0.843 ± 0.026 | 0.677 ± 0.047 | 0.466 ± 0.057 | 0.436 ± 0.035
20 | SCC90 HEADNECK | 1.14 ± 0.052 | 1.12 ± 0.11 | 1.1 ± 0.045 | 1.19 ± 0.068 | 1.12 ± 0.074 | 1.09 ± 0.059 | 1.11 ± 0.025 | 1.05 ± 0.075 | 0.933 ± 0.085 | 0.929 ± 0.061 | 0.94 ± 0.082 | 0.946 ± 0.018 | 1.06 ± 0.089 | 1.03 ± 0.085 | 0.885 ± 0.11 | 0.783 ± 0.044
